What was measured:
Assay type in all cases: cell-based
[1] = system: erythrocytes in whole blood; assay: Erythrocyte sedimentation in whole blood: sucralose concentration and other saccharides, visual analysis (Example 2); conditions: K2EDTA blood, 1 hour and 6 hours
Procedure: Fresh blood was collected into BD K2EDTA VACUTAINER® tubes and pooled. 952 μL of fresh blood was aliquot into 2 mL centrifuge tubes, each containing 48 μL of sucralose at the indicated concentration in FIG. 2, or the indicated saccharide (ML848, a di-chlorinated monosaccharide, or DG783, a mono-fluorinated monosaccharide) at the indicated concentration. Sucralose solutions of different concentrations were prepared by dilution of 0.5 M sucralose to 10 mM in water. […] 48 μL of PBS and 0.9% saline served as controls. Final concentrations of sucralose or the indicated saccharide shown in FIG. 2 were as follows (from left to right): 24 mM sucralose, 12 mM sucralose, 6.24 mM sucralose, 2.88 mM sucralose, 1.44 mM sucralose, 0.96 mM sucralose, 0.48 mM sucralose, 24 mM sucrose, 2.4 mM sucrose, 24 mM trehalose, 24 mM melezitose, 4.8 mM ML848, and 24 mM DG783.
(§1) The filled centrifuge tubes were gently inverted five times to mix and stored upright on the benchtop at approximately 25° C. Tubes were photographed at 1 hour (FIG. 2, upper panel) and 6 hours (FIG. 2, center panel) against a white background for visual analysis of sedimentation rate. After 7 hours of storage, tubes were centrifuged for 20 min at 3000 rpm to determine the effect of hemolysis on sedimentation rate by visual analysis (FIG. 2, lower panel).

[2] = system: erythrocytes in whole blood; assay: Erythrocyte sedimentation in whole blood: sucralose compared to polyols and halogenated polyols, visual analysis (Example 5); conditions: 0.5 M solution, final 24 mM sucralose, K2EDTA blood, 2 hours
Procedure: Fresh blood was collected into BD K2EDTA VACUTAINER® tubes and pooled. 952 μL of fresh blood was aliquot into 2 mL centrifuge tubes containing 48 μL of a solution of 0.5 M sucralose, the indicated polyol, or the indicated halogenated polyol. Additives at 0.25 M were adjusted to 300 mOsmol with NaCl. PBS and no formulation (NF) added served as controls. The filled centrifuge tubes were gently inverted five times to mix and stored upright on the benchtop at approximately 25° C. Tubes were photographed at 2 hours against a white background for visual analysis of sedimentation rate.

[3] = system: erythrocytes in whole blood; assay: Hemolysis by centrifugation after 7 hours of storage, visual analysis (Example 2)
Procedure: as §1

[4] = system: erythrocytes in whole blood; assay: Erythrocyte sedimentation in whole blood after addition of sucralose solution, visual analysis (Example 1); conditions: about 24 mM sucralose (0.5 M solution, blood:solution 20:1), K2EDTA blood, ambient temperature, 6 hours and 24 hours
Procedure: Fresh blood was collected into BD K2EDTA VACUTAINER® tubes and pooled. Blood and a solution of 0.5 M sucralose were mixed at a ratio of 20:1 by aliquotting 952 μL of fresh blood into 2 mL centrifuge tubes containing 48 μL of formulation, resulting in a concentration of about 24 mM sucralose. 48 μL of PBS and 0.9% saline served as controls. Blood with no formulation (NF) added served as an additional control. The filled centrifuge tubes were gently inverted five times to mix and stored upright on the benchtop at approximately 25° C. Tubes were photographed at 0 hours (FIG. 1A), 6 hours (FIG. 1B), and 24 hours (FIG. 1C) against a white background for visual analysis of sedimentation rate.

[5] = system: erythrocytes in whole blood; assay: Erythrocyte sedimentation in whole blood collected with different anticoagulants, visual analysis (Example 4); conditions: final 24 mM sucralose; ACD-B, K3EDTA, NaHep, LiHep, NaF, SPS, K2EDTA tubes; 2 hours and 8 hours
Description: To screen for collection conditions, fresh blood was collected into a series of BD VACUTAINER® or Greiner Bio-One VACUETTE® low-volume blood collection tubes containing different anticoagulants, including acid citrate dextrose solution B (ACD-B), tri-potassium ethylenediaminetetraacetic acid (K3EDTA), sodium heparin (NaHep), lithium heparin (LiHep), sodium fluoride (NaF), and sodium polyanethol sulfonate (SPS). Collection into tubes containing di-potassium ethylenediaminetetraacetic acid (K2EDTA) served as a control. 952 μL of fresh blood was aliquot into 2 mL centrifuge tubes containing 48 μL of 0.5 M sucralose or PBS. No formulation (NF) added served as an additional control. The filled centrifuge tubes were gently inverted five times to mix and stored upright on the benchtop at approximately 25° C. Tubes were photographed at 2 hours (FIG. 4, upper panel) and 8 hours (FIG. 4, lower panel) against a white background for visual analysis of sedimentation rate. […] By contrast, addition of PBS had no effect on erythrocyte sedimentation rate.

[6] = system: erythrocytes in whole blood; assay: Erythrocyte sedimentation in whole blood after addition of sucralose powder, visual analysis (Example 3)
Procedure: Fresh blood was collected into BD K2EDTA VACUTAINER® tubes and pooled. 1 mL of fresh blood was aliquotted into 2 mL centrifuge tubes containing sucralose powder. Final concentrations of sucralose ranged from 7.5 mM to 100 mM, corresponding to 3.0 mg to 39.8 mg per mL of blood. The no formulation (NF) control sample received no addition of sucralose. Tubes were inverted at least five times until no visible undissolved material remained at the bottom of the tubes. Tubes were stored upright on the benchtop at approximately 25° C. Tubes were photographed at 1 hour (FIG. 3, upper panel) and 6 hours (FIG. 3, lower panel) against a white background for visual analysis of sedimentation rate.

[7] = other saccharides, final: 24 mM and 2.4 mM sucrose, 24 mM trehalose, 24 mM melezitose, 4.8 mM ML848, 24 mM DG783

For `OC[C@H]1O[C@@](CO)(O[C@H]2O[C@H](CO)[C@@H](O)[C@H](O)[C@H]2O)[C@@H](O[C@H]2O[C@H](CO)[C@@H](O)[C@H](O)[C@H]2O)[C@@H]1O` [melezitose], the “lower sedimentation rate of erythrocytes” value [1, 7] was “not observed”.
`OC[C@H]1O[C@H](O[C@]2(CCl)O[C@H](CCl)[C@@H](O)[C@@H]2O)[C@H](O)[C@@H](O)[C@H]1Cl` [sucralose, 1,6-dichloro-1,6-dideoxy-β-D-fructofuranosyl-4-chloro-4-deoxy-α-D-galactopyranoside] was tested, and the erythrocyte sedimentation rate [2] was “reduced erythrocyte sedimentation rate”, the “hemolysis of erythrocytes (coloration of plasma layer after centrifugation)” value ([3]; high concentration of sucralose, 7 hours of storage, centrifuged 20 min at 3000 rpm) was “not due to excessive hemolysis” and the “final sucralose concentrations at which significant hemolysis was not seen” value ([3]; whole blood) was no more than 40 mM. The “sedimentation rate of the erythrocytes compared to NF, PBS or saline” value [4] was “lower sedimentation rate”, the “erythrocyte sedimentation rate for each anticoagulant” value [5] was “reduction of erythrocyte sedimentation rate” and the “lower sedimentation rate of erythrocytes” value ([1]; final sucralose concentrations below 5 mM) was “not observed”. For the same molecule, the “sedimentation rate of erythrocytes” value ([1]; high concentrations of sucralose, ambient temperature) was “lower sedimentation rate”, the “state of whole blood samples at lower concentrations of sucralose” value ([6]; sucralose powder below 24 mM, ambient temperatures, 6 hours) was “separation of the erythrocyte and plasma layers” and the “sucralose concentration at which homogeneity of whole blood samples was observed” value ([6]; sucralose powder, ambient temperatures, 6 hours) was no less than 24 mM. The “rate of erythrocyte sedimentation versus sucralose concentration” value ([6]; sucralose powder, final 7.5 mM to 100 mM, K2EDTA blood, 1 hour and 6 hours) was “inversely proportional to the concentration of sucralose”.
`OC[C@H]1O[C@@](CO)(O[C@H]2O[C@H](CO)[C@@H](O)[C@H](O)[C@H]2O)[C@@H](O)[C@@H]1O` [sucrose] was tested, and the “lower sedimentation rate of erythrocytes” value [1, 7] was “not observed”.
In the case of `OC[C@H]1O[C@H](O[C@H]2O[C@H](CO)[C@@H](O)[C@H](O)[C@H]2O)[C@H](O)[C@@H](O)[C@@H]1O` [trehalose], the “lower sedimentation rate of erythrocytes” value [1, 7] is reported as “not observed”.

Source: patent US10568317B2 (Biomatrica, Inc., priority 2015, dated 2020)
